# Source: patent publication US8679514B2, “Fungicidal mixtures based on azolopyrimidinylamines” (BASF SE, priority 2005, dated 2014)
# Columns and labels:
# [1] = test system: Pyricularia oryzae; experiment: microbe, parasite or virus in culture; assay type: cell-based; conditions: for inhibition at 63 µg/mL / inhibition at 0.25 µg/mL / inhibition at 1 µg/mL / inhibition at 4 µg/mL / inhibition at 16 µg/mL: Pyricularia oryzae, read-out: Observed activity (%)
# [2] = test system: Phytophthora infestans; experiment: microbe, parasite or virus in culture; assay type: cell-based
# [3] = test system: Phytophthora infestans; experiment: whole plant or invertebrate; assay type: in vivo; conditions: 144 h, read-out: Efficacy in % of the untreated control
# [4] = test system: Botrytis cinerea; experiment: Activity against the gray mold pathogen Botrytis cinerea in the microtiter test; assay type: cell-based; conditions: single active compound; for inhibition at 0.25 µg/mL: Conc. 0.25 mg/l; for inhibition at […]: Conc. 0.063 mg/l; for inhibition at 1 µg/mL: Conc. 1 mg/l; for inhibition at 4 µg/mL: Conc. 4 mg/l
# [5] = Phytophthora infestans, read-out: Observed activity (%)
# [6] = Botrytis cinerea, read-out: Observed activity (%)
compound,measurement,setting,value
"COCC(=O)N(c1c(C)cccc1C)C(C)C(=O)OC (racemic) [metalaxyl, methyl N-(methoxyacetyl)-N-(2,6-xylyl)-DL-alaninate, reference compound]",inhibition at 63 µg/mL,[1],2%
same,inhibition at 1 µg/mL,[2]; [5],6%
same,inhibition at 4 µg/mL,[2]; [5],9%
same,pest or weed control at 16 ppm,[3],33%
same,pest or weed control at 63 ppm,[3],56%
"Cc1nc2ncnn2c(N)c1-c1ccc(Cl)c(Cl)c1 [Compound I-9, 6-(3,4-dichlorophenyl)-5-methyl-[1,2,4]triazolo[1,5-a]pyrimidin-7-ylamine]",inhibition at 0.25 µg/mL,[1],7%
same,inhibition at 1 µg/mL,[1],13%
same,inhibition at 0.016 µg/mL,[2]; [5],1%
same,inhibition at 0.25 µg/mL,[2]; [5],7%
same,inhibition at […],[2]; [5],6%
same,inhibition at 0.25 µg/mL,[4]; [6],8%
"Cc1nc2ncnn2c(N)c1-c1ccc(C(C)(C)C)cc1 [Compound I-18, 6-(4-tert-butylphenyl)-5-methyl-[1,2,4]triazolo[1,5-a]pyrimidin-7-ylamine]",inhibition at 0.25 µg/mL,[1],15%
same,inhibition at 1 µg/mL,[1],15%
same,inhibition at 4 µg/mL,[1],18%
same,inhibition at 16 µg/mL,[1],29%
same,inhibition at 0.25 µg/mL,[2]; [5],16%
same,inhibition at 1 µg/mL,[2]; [5],45%
same,inhibition at […],[2]; [5],6%
same,pest or weed control at 16 ppm,[3],11%
same,inhibition at […],[4]; [6],6%
same,inhibition at 1 µg/mL,[4]; [6],8%
same,inhibition at 16 µg/mL,"[4]; Botrytis cinerea, Conc. 16 mg/l, read-out: Observed activity (%)",11%
"CCCCCCCCc1c(C)nc2ncnn2c1N [Compound I-25, 5-methyl-6-octyl-[1,2,4]triazolo[1,5-a]pyrimidin-7-ylamine]",inhibition at 1 µg/mL,[1],24%
same,inhibition at 0.25 µg/mL,[2]; [5],5%
same,inhibition at 1 µg/mL,[2]; [5],13%
same,inhibition at […],[2]; [5],4%
same,pest or weed control at 16 ppm,[3],0%
same,inhibition at 0.25 µg/mL,[4]; [6],5%
"Cc1nc2ncnn2c(N)c1CCC(C)CC(C)(C)C (stereo not drawn) [Compound I-28, 5-methyl-6-(3,5,5-trimethylhexyl)-[1,2,4]triazolo[1,5-a]pyrimidin-7-ylamine]",inhibition at 0.25 µg/mL,[1],12%
same,inhibition at 1 µg/mL,[1],13%
same,inhibition at 0.016 µg/mL,[2]; [5],0%
same,inhibition at 0.25 µg/mL,[2]; [5],14%
same,inhibition at 1 µg/mL,[2]; [5],24%
same,inhibition at […],[2]; [5],0%
same,pest or weed control at 63 ppm,[3],44%
same,inhibition at 4 µg/mL,[4]; [6],0%
"CCCCCCCCc1c(C(F)(F)F)nc2ncnn2c1N [Compound I-98, 6-octyl-5-trifluoromethyl-[1,2,4]triazolo[1,5-a]pyrimidin-7-ylamine]",inhibition at 0.25 µg/mL,[1],0%
same,inhibition at 1 µg/mL,[1],0%
same,inhibition at 4 µg/mL,[1],15%
same,inhibition at 16 µg/mL,[1],43%
same,inhibition at 0.25 µg/mL,[2]; [5],6%
same,inhibition at 1 µg/mL,[2]; [5],16%
same,inhibition at 4 µg/mL,[2]; [5],22%
same,inhibition at […],[2]; [5],5%
same,inhibition at 0.25 µg/mL,[4]; [6],4%
same,inhibition at 1 µg/mL,[4]; [6],5%
"CC(CCc1c(C(F)(F)F)nc2ncnn2c1N)CC(C)(C)C (stereo not drawn) [Compound I-101, 5-trifluoromethyl-6-(3,5,5-trimethylhexyl)-[1,2,4]triazolo[1,5-a]pyrimidin-7-ylamine]",inhibition at 1 µg/mL,[1],15%
same,inhibition at 4 µg/mL,[1],16%
same,inhibition at 16 µg/mL,[1],25%
same,inhibition at 0.25 µg/mL,[2]; [5],3%
same,inhibition at 4 µg/mL,[2]; [5],9%
same,inhibition at 1 µg/mL,[4]; [6],1%
"CCc1nc2ncnn2c(N)c1CCC(C)CC(C)(C)C (stereo not drawn) [Compound I-113, 5-ethyl-6-(3,5,5-trimethylhexyl)-[1,2,4]triazolo[1,5-a]pyrimidin-7-ylamine]",inhibition at 4 µg/mL,[1],7%
same,inhibition at 0.25 µg/mL,[2]; [5],3%
same,inhibition at 4 µg/mL,[2]; [5],36%
same,pest or weed control at 16 ppm,[3],22%
"CCCCCCCCc1nc2ncnn2c(N)c1CC [Compound I-290, 6-ethyl-5-octyl-[1,2,4]triazolo[1,5-a]pyrimidin-7-ylamine]",inhibition at 0.25 µg/mL,[2]; [5],0%
same,inhibition at 4 µg/mL,[2]; [5],3%
same,inhibition at […],[2]; [5],0%
same,inhibition at 1 µg/mL,[4]; [6],4%
"O=S(=O)([O-])[O-].[Cu+2] [CuSO4, reference compound]",Observed activity (%),[1],0%
same,Observed activity (%),[4]; Conc. 63 mg/l,0%
"CC1CCN(c2c(-c3c(F)cc(F)cc3F)c(Cl)nc3ncnn23)CC1 [[D-8], 5-chloro-7-(4-methylpiperidin-1-yl)-6-(2,4,6-trifluorophenyl)-[1,2,4]triazolo[1,5-a]pyrimidine, reference compound]",inhibition at 1 µg/mL,[2]; [5],43%
CO/C=C(/C(=O)OC)c1ccccc1Oc1cc(Oc2ccccc2C#N)ncn1 [azoxystrobin],Observed activity (%),[2],21%
COC(=O)C(C)N(C(=O)Cc1ccccc1)c1c(C)cccc1C (stereo not drawn) [benalaxyl],inhibition at 4 µg/mL,[2]; [5],13%
O=C(Nc1ccccc1-c1ccc(Cl)cc1)c1cccnc1Cl [boscalid],inhibition at 63 µg/mL,[1],12%
same,inhibition at 1 µg/mL,[2]; [5],2%
same,inhibition at 4 µg/mL,[2]; [5],17%
"O=C1C2CC=CCC2C(=O)N1SC(Cl)(Cl)Cl (stereo not drawn) [captan, 2-trichloromethylsulfanyl-3a,4,7,7a-tetrahydroisoindole-1,3-dione, reference compound]",inhibition at 1 µg/mL,[1],44%
same,inhibition at 1 µg/mL,[2]; [5],12%
COC(=O)Nc1nc2ccccc2[nH]1 [carbendazim],inhibition at 0.25 µg/mL,[1],20%
N#Cc1c(Cl)c(Cl)c(Cl)c(C#N)c1Cl [chlorothalonil],inhibition at 1 µg/mL,[4]; [6],55%
"Cc1ccc(-c2c(Cl)nc(C#N)n2S(=O)(=O)N(C)C)cc1 [cyazofamid, 4-chloro-2-cyano-N,N-dimethyl-5-(4-methylphenyl)-1H-imidazole-1-sulfon-amide, reference compound]",inhibition at 4 µg/mL,[1],23%
same,pest or weed control at 4 ppm,[3],33%
CC(C1CC1)C(O)(Cn1cncn1)c1ccc(Cl)cc1 (stereo not drawn) [cyproconazole],inhibition at 4 µg/mL,[1],54%
same,inhibition at 4 µg/mL,[2]; [5],9%
Cc1cc(C2CC2)nc(Nc2ccccc2)n1 [cyprodinil],inhibition at 4 µg/mL,[2]; [5],10%
CC1COC(Cn2cncn2)(c2ccc(Oc3ccc(Cl)cc3)cc2Cl)O1 (stereo not drawn) [difenoconazole],inhibition at 4 µg/mL,[2]; [5],24%
CC1CN(C2CCCCCCCCCCC2)CC(C)O1 (stereo not drawn) [dodemorph],inhibition at 16 µg/mL,[1],72%
CO/C=C(/C(=O)OC)c1ccccc1CO/N=C(C)/C=C/c1ccc(Cl)cc1 [enestroburin],Observed activity (%),[2],35%
CSC1=N[C@@](C)(c2ccccc2)C(=O)N1Nc1ccccc1 [fenamidone],inhibition at […],[2]; [5],40%
O=[N+]([O-])c1cc(C(F)(F)F)c(Cl)c([N+](=O)[O-])c1Nc1ncc(C(F)(F)F)cc1Cl [fluazinam],inhibition at 0.25 µg/mL,[2]; [5],9%
same,inhibition at […],[4]; [6],50%
CC(C)OC(=O)N[C@H](C(=O)N[C@H](C)c1nc2ccc(F)cc2s1)C(C)C [flubenthiavalicarb],Observed activity (%),[2],68%
CO/N=C(/C1=NOCCO1)c1ccccc1Oc1ncnc(Oc2ccccc2Cl)c1F [fluoxastrobin],inhibition at 0.025 µg/mL,[2]; [5],2%
same,inhibition at […],[2]; [5],1%
"O=c1c2cc(F)ccc2nc(-n2cncn2)n1-c1ccc(Cl)cc1Cl [fluquinconazole, 3-(2,4-dichlorophenyl)-6-fluoro-2-[1,2,4]-triazol-1-yl-3H-quinazolin-4-one, reference compound]",inhibition at 4 µg/mL,[1],0%
same,inhibition at 1 µg/mL,[2]; [5],0%
same,inhibition at 4 µg/mL,[2]; [5],0%
same,inhibition at […],[4]; [6],22%
C[Si](Cn1cncn1)(c1ccc(F)cc1)c1ccc(F)cc1 [flusilazole],inhibition at 1 µg/mL,[2]; [5],0%
same,inhibition at 4 µg/mL,[2]; [5],11%
same,inhibition at 0.25 µg/mL,[4]; [6],43%
O=C1c2ccccc2C(=O)N1SC(Cl)(Cl)Cl [folpet],inhibition at 1 µg/mL,[2]; [5],6%
same,inhibition at 1 µg/mL,[4]; [6],2%
"CC(C)NC(=O)N1CC(=O)N(c2cc(Cl)cc(Cl)c2)C1=O [iprodione, N-isopropyl-3-(3,5-dichlorophenyl)-2,4-dioxoimidazolidine-1-carboxamide, reference compound]",inhibition at 4 µg/mL,[1],46%
"COc1cc(C)c(C(=O)c2c(OC)ccc(Br)c2C)c(OC)c1OC [metrafenone, 3′-bromo-2,3,4,6′-tetramethoxy-2′,6-dimethylbenzophenone, reference compound]",inhibition at 63 µg/mL,[1],42%
same,inhibition at 4 µg/mL,[2]; [5],2%
Cc1cccc(C)c1N(C(=O)CCl)C1CCOC1=O (stereo not drawn) [ofurace],inhibition at 4 µg/mL,[2]; [5],0%
same,inhibition at 16 µg/mL,[2]; [5],19%
COCC(=O)N(c1c(C)cccc1C)N1CCOC1=O [oxadixyl],inhibition at 1 µg/mL,[2]; [5],0%
same,inhibition at 4 µg/mL,[2]; [5],2%
same,inhibition at 16 µg/mL,[2]; [5],17%
CCCN(CCOc1c(Cl)cc(Cl)cc1Cl)C(=O)n1ccnc1 [prochloraz],inhibition at 16 µg/mL,[2]; [5],6%
CCCC1COC(Cn2cncn2)(c2ccc(Cl)cc2Cl)O1 (stereo not drawn) [propiconazole],inhibition at 1 µg/mL,[2]; [5],1%
same,inhibition at 4 µg/mL,[2]; [5],11%
same,inhibition at 16 µg/mL,[2]; [5],12%
"OC(Cc1ccccc1Cl)(Cn1nc[nH]c1=S)C1(Cl)CC1 (stereo not drawn) [prothioconazole, 2-[2-(1-chlorocyclopropyl)-3-(2-chlorophenyl)-2-hydroxypropyl]-2,4-dihydro-[1,2,4]triazole-3-thione, reference compound]",inhibition at 4 µg/mL,[1],11%
same,inhibition at 4 µg/mL,[4]; [6],48%
COC(=O)N(OC)c1ccccc1COc1ccn(-c2ccc(Cl)cc2)n1 [pyraclostrobin],inhibition at 0.016 µg/mL,[2]; [5],14%
same,inhibition at […],[2]; [5],59%
CC(C)(C)C(O)(CCc1ccc(Cl)cc1)Cn1cncn1 (stereo not drawn) [tebuconazole],inhibition at 1 µg/mL,[2]; [5],8%
same,inhibition at 4 µg/mL,[2]; [5],10%
same,inhibition at 16 µg/mL,[2]; [5],9%
same,inhibition at 0.25 µg/mL,[4]; [6],50%
COC(=O)NC(=S)Nc1ccccc1NC(=S)NC(=O)OC [thiophanate-methyl],inhibition at 0.25 µg/mL,[4]; [6],12%
CON=C(C(=O)OC)c1ccccc1CON=C(C)c1cccc(C(F)(F)F)c1 [trifloxystrobin],inhibition at 0.25 µg/mL,[2]; [5],33%
same,inhibition at 1 µg/mL,[2]; [5],46%
C=CC1(C)OC(=O)N(c2cc(Cl)cc(Cl)c2)C1=O (stereo not drawn) [vinclozolin],inhibition at 16 µg/mL,[2]; [5],0%
same,inhibition at 1 µg/mL,[4]; [6],21%
maneb,Observed activity (%),[1],32%
same,Observed activity (%),[2],6%
"zinc ammoniate ethylenebis(dithiocarbamate) [metiram, reference compound]",Observed activity (%),[1],26%
